Here are results for one compound from ChEMBL document CHEMBL1131488, “Dihydropyrancarboxamides related to zanamivir: a new series of inhibitors of influenza virus sialidases. 1. Discovery, synthesis, biological activity, and structure-activity relationships of 4-guanidino- and 4-amino-4H-pyran-6-carboxamides” (J Med Chem, 1998).

Some results are limits rather than exact numbers.

The target in data set [1] is Neuraminidase (Influenza A virus (A/Puerto Rico/8/1934(H1N1)), UniProt P03468). As to the kind of experiment: Inhibition of influenza A virus sialidase activity.
A short description of data set [2]: t1/2, plasma elimination half life, the time taken for the plasma concentrations to fall by one half, once distribution is complete at a dose of 10 mg/kg. Type of data set: ADME, organism-based. More on the design: dose 10 mg/kg.
In data set [3] the test system is Mus musculus. As to the kind of experiment: Compound was tested for in vivo efficacy in mouse model of influenza A virus A/Singapore/1/57 at dose of 1 mg/kg. (in). It counts as functional.
In data set [4] the test system is Mus musculus. As to the kind of experiment: Compound was tested for in vivo efficacy in mouse model of influenza A virus A/Singapore/1/57 at dose of 10 mg/kg.(ip). Type of data set: functional.
Data set [5] relates to Mus musculus. In words: Compound was tested for in vivo efficacy in mouse model of influenza A virus A/Singapore/1/57 at dose of 50 mg/kg.(ip). Type of data set: functional.
Data set [6] is described as follows: Clp, plasma clearance at a dose of 10 mg/kg. It counts as ADME, organism-based. More on the design: dose 10 mg/kg. To be noted: read-out: Clp.
A short description of data set [7]: Vss, volume of distribution at steady state at a dose of 10 mg/kg. Type of data set: ADME, organism-based. Also noted: dose 10 mg/kg. To be noted: in vivo, read-out: Vss.
The next data set has as its target Neuraminidase (Influenza B virus (strain B/Lee/1940), UniProt P03474). As to the kind of experiment: Inhibition of influenza B virus sialidase activity.

Sequence of Neuraminidase (P03474 whole entry): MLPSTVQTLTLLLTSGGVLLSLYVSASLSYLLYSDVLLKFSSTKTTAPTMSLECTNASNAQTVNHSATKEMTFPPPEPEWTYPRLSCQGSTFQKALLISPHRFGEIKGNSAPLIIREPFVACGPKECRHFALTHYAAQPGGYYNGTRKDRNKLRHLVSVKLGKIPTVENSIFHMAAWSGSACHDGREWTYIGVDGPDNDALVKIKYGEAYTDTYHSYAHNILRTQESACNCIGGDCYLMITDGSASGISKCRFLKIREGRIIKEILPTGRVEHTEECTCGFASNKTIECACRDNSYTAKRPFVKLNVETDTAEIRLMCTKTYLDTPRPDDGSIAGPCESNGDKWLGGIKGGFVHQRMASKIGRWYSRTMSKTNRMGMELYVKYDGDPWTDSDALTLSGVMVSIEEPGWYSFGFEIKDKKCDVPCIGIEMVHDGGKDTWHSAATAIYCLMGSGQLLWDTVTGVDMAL
Sequence of Neuraminidase (Influenza A virus (A/Puerto Rico/8/1934(H1N1)), UniProt P03468) (P03468 whole entry): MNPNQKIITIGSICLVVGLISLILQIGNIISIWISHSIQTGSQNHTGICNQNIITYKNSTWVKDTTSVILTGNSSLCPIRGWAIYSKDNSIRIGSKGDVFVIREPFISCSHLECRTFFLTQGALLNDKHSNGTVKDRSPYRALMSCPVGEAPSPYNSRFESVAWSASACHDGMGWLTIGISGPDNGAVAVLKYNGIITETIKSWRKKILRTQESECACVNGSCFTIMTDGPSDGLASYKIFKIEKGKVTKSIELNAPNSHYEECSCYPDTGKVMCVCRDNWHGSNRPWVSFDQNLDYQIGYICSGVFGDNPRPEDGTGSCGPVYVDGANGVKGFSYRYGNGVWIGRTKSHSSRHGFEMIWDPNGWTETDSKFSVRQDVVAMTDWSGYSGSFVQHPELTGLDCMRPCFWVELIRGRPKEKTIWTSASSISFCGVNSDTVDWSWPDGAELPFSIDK

A word on the IC50: it is the concentration at which inhibition is half-maximal. The term half-life denotes the time in which the quantity being followed falls by half. Low readings indicate rapid decline, high ones slow decline. For the compound `CCCCCCCCCN(CCC)C(=O)[C@@H]1OC(C(=O)O)=C[C@H](N=C(N)N)[C@H]1NC(C)=O`, the figures for the IC50 (in data set [1]; against Neuraminidase) were 7 nM and more than 3000 nM, respectively. For the same compound, the half-life in data set [2] was 55.2 min. For the same compound, the “Reduction in virus titer” value in the data set with Mus musculus [3] was 72%; in the data set on Mus musculus [4], more than 99.99%; with Mus musculus [5], 50%. For the same compound, the clearance in data set [6] was 21.8 mL/min/kg. Further, in data set [7], the Vd is 1.2 L/kg.
